# Source: patent publication US20090130064A1, “DIFFERENTIATION OF STEM CELLS AND STABILIZATION OF PHENOTYPICAL PROPERTIES OF PRIMARY CELLS” (priority 2004, published 2009)
# Legend:
# CYP 2B = test: Western blot of CYP 2B in primary rat hepatocytes; assay type: cell-based; conditions: 50 μM
# Excerpt: Male outbred Sprague-Dawley rats (200-300 g, Iffa Credo, Brussels, Belgium) were kept under controlled environmental conditions (12-hr light-dark cycle) and fed a standard diet (Animalabo A04, water ad libitum). Hepatocytes were isolated by a two-step collagenase perfusion as described (De Smet et al. In ‘Methods in Molecular Biology, Vol. 107: Cytochrome P450 Protocols’, Philips I R and Shephard E A, eds., pp 295-301, Humana Press, Totowa, 1998). Cell viability was >90% as determined by trypan blue exclusion. Cells (0.4×10^5 cells/cm^2) were plated in MEM/M199 (3:1), containing BSA (1 mg/ml), bovine insulin (10 μg/ml), L-glutamine (2 mM), FBS (10% v/v) and antibiotics (7.3 IU/ml benzyl penicillin, 50 μg/ml streptomycin sulphate, 50 μg/ml kanamycin monosulphate and 10 μg/ml sodium ampicillin). Four hours after plating, serum-containing medium was removed and fresh serum-free medium was added to the cultures. Culture medium was refreshed daily. EGF (50 ng/ml) was added 4 hours after plating. A 100 mM stock solution of 4-Me2N-BAVAH was prepared in ethanol.
# GSTM = GSTM iso-enzyme activity in cultured rat hepatocytes; assay type: cell-based; conditions: TSA started at 4 h; day 4 and 7
# Excerpt: Hepatocytes were isolated from male Sprague-Dawley rats by a two-step collagenase perfusion as described (De Smet et al. In ‘Methods in Molecular Biology, Vol. 107: Cytochrome P450 Protocols’, Philips IR and Shephard E A, eds., p.p 295-301, Humana Press, Totowa, 1998). Hepatocytes were cultivated in monolayer cultures with Willam's E Medium (WE) for 7 days. […] The maintenance of differentiation characteristics was studied after 2, 4, and 7 days (D2, D4, D7) of culture.
# In order to investigate Phase II biotransformation, total cytosolic glutathione S-transferase (GST) activity and activities of individual GSTA, GSTP, and GSTM iso-enzymes were measured using standard techniques known in the art. (i.e., measuring conjugation of reduced glutathione with 1-chloro-2,4-dinitrobenzene for total GST; measuring conjugation of reduced glutathione with 7-chloro-4-nitrobenzo-2-oxa-1,3-diazole for GSTA activity; measuring conjugation of reduced glutathione with ethacrynic acid for GSTP activity; and measuring conjugation of reduced glutathione with 1,2-dichloro-4-nitrobenzene for GSTM activity).
# Cx43 = Cx43 expression and localization (immunoblotting, immunocytochemistry) in rat hepatocytes; assay type: cell-based; conditions: 1 μM TSA
# Procedure: In all conditions, the hepatocytes were cultivated as a monolayer configuration, and samples were taken at days 1, 4 and 7 (D1, D4, D7) of the cultivation time.
# Proteins (25 or 50 μg) were resolved on SDS-PAGE (7.5, 10 or 12%) and blotted afterwards onto nitrocellulose membranes. After blocking with non-fatty milk, membranes were incubated with appropriate concentrations of primary and secondary antibodies (HRP labeled). Proteins were detected using the ECL detection system (Amersham Biosciences). Primary antibodies: Cx26 (Zymed, 1/250), Cx32 (Sigma, 1/500), Cx43 (Zymed, 1/100).
# Hepatocytes were fixed with cold ethanol, peremeabilised with Triton X-100 (Sigma) and blocked with non-fatty milk. Following incubation with appropriate concentrations of primary and secondary antibodies (FITC or TRITC labeled), samples were mounted with DAPI-containing Vectashield (Vector Laboratories). Detection was performed by fluorescence microscopy (Leica DMR/XA).
# hMSC = test: Albumin ELISA, ALB secretion by hMSC; assay type: cell-based, human; conditions: for ALB secreted: sequential + 1 μM TSA from day 6
# Procedure: Low-density hMSC (CD45^−, Thy^+) were cultivated at 21.5 10^3 cells cm^2 on 1 mg/ml collagen gel type I matrix in the presence of liver-specific (LSP) cytokines, added either as a cocktail [basal medium supplemented with 10 ng/ml FGF-4 (fibroblast growth factor type 4), 20 ng/ml HGF (hepatic growth factor) (all from R&D), 1×ITS (insulin, transferrin, selenious acid) and 0.05 μM Dex (dexamethasone) (all from Sigma)] or sequentially [basal medium supplemented with 10 ng/ml FGF-4, following basal media supplemented with 20 ng/ml HGF (R&D) and finally basal medium supplemented with 20 ng/ml HGF, 1×ITS and 0.05 μM Dex]. Basal medium consisted of 60% (v/v) DMEM-LG/40% (v/v) MCDB-201 supplemented with 1 mg/ml LA-BSA, 100 IU/ml penicillin, 100 μg/ml streptomycin, 0.1 mM L-ascorbic acid, 4 μg/ml nicotinamide, 27.3 mg/l sodium-pyruvate and 1.623 mM glutamin (all from Sigma). The media were changed every three days.
# ALB concentrations secreted into the media were analysed by a competitive enzyme-linked immunosorbent assay (ELISA) as described (Koebe et al. Int J Artif Organs 17: 95-106, 1994). The ALB levels were normalized with respect to the media used.
smiles,measurement,setting,value
"CN(C)c1ccc(C(=O)NCCCCC(=O)NO)cc1 [4-Me2N-BAVAH, 5-(4-dimethylaminobenzoyl)-aminovaleric acid hydroxamide]",expression of CYP 2B,CYP 2B,Increased Expression
CC(C=CC(=O)NO)=CC(C)C(=O)c1ccc(N(C)C)cc1 (stereo not drawn) [TSA],activity of GSTM iso-enzyme,GSTM,stimulated
same,expression of Cx43,Cx43,induces the expressions
same,localization of Cx43,Cx43,cytosolic localization
same,ALB secretion,"hMSC; cocktail + 1 μM TSA, not significant",upregulation
same,ALB levels,"hMSC; conditioned medium, sequential + TSA, day 17",2.26 ± 0.092 µg/mL
same,difference in ALB secretion between cells with and without TSA,"hMSC; conditioned medium, sequential, TSA day 0 until HGF, day 15",2.28 fold
same,ALB secreted,hMSC; day 15,2.019 ± 0.144 µg/mL
same,ALB secreted,hMSC; day 17,3.456 ± 0.08 µg/mL
